Test results: the supplement of paper PMC10307832

How the values were obtained:
Assay in all cases: relative viability (nuclei count vs DMSO), 5 days (fraction); higher = more cells survive
Avagacestat = compound: NC(=O)[C@@H](CCC(F)(F)F)N(Cc1ccc(-c2ncon2)cc1F)S(=O)(=O)c1ccc(Cl)cc1 [Avagacestat]
In short: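 Hoechst staining, done together with fixation and permeabilisation, marked nuclei for 4× imaging and MetaXpress counting. This followed 5 days without medium change after lung cancer cell lines, kept overnight at 37 °C in 1536-well plates, were pinned with five library-drug doses (not always all listed) spaced by √10 on vehicle-anchored plates. Viability is the ratio of treated-well to vehicle-well nuclei, expressed as a median across plates. Plates passed only at control CV below 25% with at least one doubling.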

Avagacestat + Trametinib = compound: NC(=O)[C@@H](CCC(F)(F)F)N(Cc1ccc(-c2ncon2)cc1F)S(=O)(=O)c1ccc(Cl)cc1 [Avagacestat] + CC(=O)Nc1cccc(-n2c(=O)n(C3CC3)c(=O)c3c(Nc4ccc(I)cc4F)n(C)c(=O)c(C)c32)c1 [Trametinib] (partner 0.02 µM)
In short: (§1)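 Relative viability divides the nuclei count in treated wells by that in vehicle wells. Lung cancer cell lines were seeded in 1536-well plates, dosed by pin tool the next day, and fixed and stained after 5 days in one step with final 0.05% Triton X-100, 1% formaldehyde and 1 ug/ml Hoechst. Dosing was a single drug or a fixed anchor-drug dose plus five library-drug doses (not always all listed) in √10 steps, and values are medians of duplicate plates imaged at 4×.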

Avagacestat + AZD7762 = compound: NC(=O)[C@@H](CCC(F)(F)F)N(Cc1ccc(-c2ncon2)cc1F)S(=O)(=O)c1ccc(Cl)cc1 [Avagacestat] + NC(=O)Nc1cc(-c2cccc(F)c2)sc1C(=O)N[C@H]1CCCNC1 [AZD7762] (partner 0.2 µM)
In short: as §1

Avagacestat + Tozasertib = compound: NC(=O)[C@@H](CCC(F)(F)F)N(Cc1ccc(-c2ncon2)cc1F)S(=O)(=O)c1ccc(Cl)cc1 [Avagacestat] + Cc1cc(Nc2cc(N3CCN(C)CC3)nc(Sc3ccc(NC(=O)C4CC4)cc3)n2)n[nH]1 [Tozasertib] (partner 0.1 µM)
In short: as §1

| Cell Line | relative viability (Avagacestat; 0.08 µM) | relative viability (Avagacestat; 0.253 µM) | relative viability (Avagacestat; 0.8 µM) | relative viability (Avagacestat; 2.53 µM) | relative viability (Avagacestat; 8 µM) | relative viability (Avagacestat + Trametinib; first compound 0.08 µM) | relative viability (Avagacestat + Trametinib; first compound 0.253 µM) | relative viability (Avagacestat + Trametinib; first compound 0.8 µM) | relative viability (Avagacestat + Trametinib; first compound 2.53 µM) | relative viability (Avagacestat + Trametinib; first compound 8 µM) | relative viability (Avagacestat + AZD7762; first compound 0.08 µM) | relative viability (Avagacestat + AZD7762; first compound 0.253 µM) | relative viability (Avagacestat + AZD7762; first compound 0.8 µM) | relative viability (Avagacestat + AZD7762; first compound 2.53 µM) | relative viability (Avagacestat + AZD7762; first compound 8 µM) | relative viability (Avagacestat + Tozasertib; first compound 0.08 µM) | relative viability (Avagacestat + Tozasertib; first compound 0.253 µM) | relative viability (Avagacestat + Tozasertib; first compound 0.8 µM) | relative viability (Avagacestat + Tozasertib; first compound 2.53 µM) | relative viability (Avagacestat + Tozasertib; first compound 8 µM) |
| --- | --- | --- | --- | --- | --- | --- | --- | --- | --- | --- | --- | --- | --- | --- | --- | --- | --- | --- | --- | --- |
| NCI-H1792 | 1.15 | 0.866 | 1.36 | 0.859 | 0.761 | 0.534 | 0.641 | 0.491 | 0.373 | 0.439 | 0.726 | 0.942 | 0.706 | 0.65 | 0.345 |  |  |  |  |  |
| NCI-H2126 | 0.994 | 1.04 | 1.06 | 0.921 | 0.936 | 0.612 | 0.553 | 0.545 | 0.524 | 0.512 | 1.02 | 0.979 | 1.01 | 0.912 | 1.02 | 0.81 | 0.859 | 0.906 | 0.334 | 0.778 |
| NCI-H23 | 1.01 | 1.08 | 1.17 | 1.03 | 0.944 | 0.43 | 0.261 | 0.392 | 0.414 | 0.4 | 0.227 | 0.229 | 0.219 | 0.282 | 0.225 | 0.378 | 0.535 | 0.406 | 0.362 | 0.359 |
| PC-14 | 1.32 | 1.18 | 1.35 | 1.02 | 0.922 | 1.14 | 1.1 | 0.933 | 0.736 | 0.649 | 0.53 | 0.568 | 0.581 | 0.39 | 0.392 | 0.733 | 0.859 | 0.925 | 0.692 | 0.633 |
| NCI-H727 | 1.06 | 0.987 | 0.948 | 1.02 | 0.837 | 0.443 | 0.452 | 0.387 | 0.434 | 0.499 | 0.678 | 0.651 | 0.78 | 0.651 | 0.784 | 0.614 | 0.686 | 0.592 | 0.489 | 0.489 |
| EBC-1 | 1.07 | 1.11 | 1.12 | 0.942 | 0.8 |  |  |  |  |  |  |  |  |  |  |  |  |  |  |  |
| NCI-H2009 | 1.04 | 1.09 | 1.04 | 1.04 | 0.912 | 0.267 | 0.245 | 0.283 | 0.252 | 0.251 |  |  |  |  |  | 0.879 | 0.836 | 0.812 | 0.61 | 0.532 |
| NCI-H1563 | 0.984 | 0.986 | 0.968 | 0.798 | 0.813 |  |  |  |  |  |  |  |  |  |  |  |  |  |  |  |
| NCI-H520 | 1.04 | 1.08 | 1 | 0.918 | 0.825 | 0.814 | 0.792 | 0.611 | 0.497 | 0.616 |  |  |  |  |  | 0.417 | 0.48 | 0.42 | 0.3 | 0.36 |
| UMC-11 | 1.04 | 1.07 | 1.1 | 1.02 | 1.06 | 0.752 | 0.686 | 0.799 | 0.789 | 0.675 |  |  |  |  |  | 0.206 | 0.225 | 0.201 | 0.195 | 0.202 |
| COR-L23 | 1.16 | 1.24 | 0.989 | 0.921 | 0.901 | 0.765 | 0.741 | 0.818 | 0.632 | 0.414 |  |  |  |  |  | 0.363 | 0.152 | 0.171 | 0.173 | 0.149 |
| SW 1573 | 1.14 | 1.14 | 1.06 | 0.972 | 0.895 | 0.75 | 0.679 | 0.519 | 0.629 | 0.462 |  |  |  |  |  | 0.169 | 0.195 | 0.173 | 0.217 | 0.176 |
| NCI-H2023 | 1.18 | 1.22 | 1.1 | 0.912 | 0.804 | 0.681 | 0.59 | 0.569 | 0.522 | 0.449 |  |  |  |  |  | 0.513 | 0.479 | 0.396 | 0.289 | 0.254 |
| NCI-H2228 | 1.07 | 1.22 | 1.29 | 0.9 | 1.01 | 0.591 | 0.535 | 0.753 | 0.59 | 0.354 |  |  |  |  |  | 0.206 | 0.255 | 0.206 | 0.224 | 0.242 |
| NCI-H1299 | 1.03 | 1.11 | 1.06 | 1.04 | 1 |  |  |  |  |  |  |  |  |  |  |  |  |  |  |  |
| NCI-H1650 | 1.1 | 1.08 | 0.95 | 1.13 | 0.881 | 0.696 | 0.614 | 0.73 | 0.678 | 0.588 |  |  |  |  |  | 0.47 | 0.378 | 0.468 | 0.393 | 0.333 |
| IA-LM | 1.83 | 1.62 | 1.44 | 1.51 | 1.26 |  |  |  |  |  |  |  |  |  |  |  |  |  |  |  |
| SK-MES-1 | 1.14 | 1.08 | 1.06 | 0.92 | 0.889 | 0.564 | 0.567 | 0.522 | 0.515 | 0.494 |  |  |  |  |  | 1.13 | 1.23 | 1.07 | 0.874 | 0.783 |
| NCI-H1703 | 1.24 | 1.03 | 0.975 | 0.955 | 0.873 |  |  |  |  |  | 0.123 | 0.143 | 0.115 | 0.112 | 0.124 |  |  |  |  |  |
| ABC-1 | 1.1 | 1.25 | 1.26 | 1.14 | 0.877 |  |  |  |  |  | 0.864 | 1.02 | 0.895 | 0.94 | 0.664 | 0.164 | 0.16 | 0.178 | 0.187 | 0.179 |
| NCI-H661 | 1.02 | 1.2 | 1.04 | 0.85 | 1.02 | 0.589 | 0.632 | 0.604 | 0.548 | 0.521 |  |  |  |  |  | 0.356 | 0.381 | 0.361 | 0.363 | 0.37 |
| COR-L 105 | 0.955 | 1.07 | 0.923 | 0.876 | 0.633 | 0.401 | 0.45 | 0.457 | 0.42 | 0.474 |  |  |  |  |  | 0.379 | 0.458 | 0.41 | 0.334 | 0.359 |
